Results reported in patent publication US12544370B2, “Methods for cancer therapy” (ASCENTAGE PHARMA (SUZHOU) CO., LTD., priority 2018, dated 2026).

System: TKI-resistant patients with chronic phase (CP) or accelerated phase (AP) CML
Test: Phase I study, safety / treatment related adverse events (Example 1)
Description: The eligible patients received treatments until disease progression or intolerable toxicities. The primary efficacy endpoint in the CML AP and CP patients, was complete hematological response (CHR) and major cytogenetic response (MCyR) respectively, MCyR includes partial cytogenetic response (PCyR) and complete cytogenetic response (CCyR). Blood samples were collected at various time points on Day 1-2 and Day 27-28 during cycle 1 for PK analyses.
• 3 to 6 subjects in each dose group (traditional 3+3 dose increasing method) • Up to 15 subjects in the MTD dose group (safety and PK characteristics) • Dose extension studies: • Up to 60 subjects (CP/CML-AP) • Extended dose selection is based on initial safety and efficacy Study Endpoints Primary Endpoint

[1] = Example 1, Table 1, 70 patients

## Cc1ccc(C(=O)Nc2ccc(CN3CCN(C)CC3)c(C(F)(F)F)c2)cc1C#Cc1cnc2[nH]ncc2c1 [compound of formula (I-A), 3-(2-(1H-pyrazolo[3,4-b]pyridin-5-yl)ethynyl)-4-methyl-N-(4-((4-methylpiperazin-1-yl)methyl)-3-(trifluoromethyl)phenyl)-benzamide]
[1]
  TRAE ALT increased, Any grade: 15 (21%) n (%)
  TRAE ALT increased, Grade 3-4: 0 n (%)
  TRAE AST increased, Any grade: 17 (24%) n (%)
  TRAE AST increased, Grade 3-4: 0 n (%)
  TRAE Anaemia, Any grade: 6 (8.6%) n (%)
  TRAE Anaemia, Grade 3-4: 5 (7.1%) n (%)
  TRAE CPK increased, Any grade: 18 (26%) n (%)
  TRAE CPK increased, Grade 3-4: 1 (1.4%) n (%)
  TRAE Creatinine increased, Any grade: 4 (5.7%) n (%)
  TRAE Creatinine increased, Grade 3-4: 0 n (%)
  TRAE GGT increased, Any grade: 10 (14%) n (%)
  TRAE GGT increased, Grade 3-4: 0 n (%)
  TRAE Hyperbilirubinemia, Any grade: 20 (29%) n (%)
  TRAE Hyperbilirubinemia, Grade 3-4: 0 n (%)
  TRAE Hyperglycaemia, Any grade: 5 (7.1%) n (%)
  TRAE Hyperglycaemia, Grade 3-4: 0 n (%)
  TRAE Hypertriglyceridaemia, Any grade: 36 (51%) n (%)
  TRAE Hypertriglyceridaemia, Grade 3-4: 2 (2.9%) n (%)
  TRAE Hypocalcaemia, Any grade: 25 (36%) n (%)
  TRAE Hypocalcaemia, Grade 3-4: 0 n (%)
  TRAE Hypokalaemia, Any grade: 12 (17%) n (%)
  TRAE Hypokalaemia, Grade 3-4: 0 n (%)
  TRAE Hyponatraemia, Any grade: 5 (7.1%) n (%)
  TRAE Hyponatraemia, Grade 3-4: 0 n (%)
  TRAE Leucocytopenia, Any grade: 12 (17%) n (%)
  TRAE Leucocytopenia, Grade 3-4: 12 (17%) n (%)
  TRAE Myalgia, Any grade: 11 (16%) n (%)
  TRAE Myalgia, Grade 3-4: 0 n (%)
  TRAE Pyrexia, Any grade: 13 (19%) n (%)
  TRAE Pyrexia, Grade 3-4: 4 (5.7%) n (%)
  TRAE Rash, Any grade: 9 (13%) n (%)
  TRAE Rash, Grade 3-4: 0 n (%)
  TRAE Skin hyperpigmentation, Any grade: 17 (24%) n (%)
  TRAE Skin hyperpigmentation, Grade 3-4: 0 n (%)
  TRAE Skin mass, Any grade: 6 (8.6%) n (%)
  TRAE Skin mass, Grade 3-4: 0 n (%)
  TRAE Thrombocytopenia, Any grade: 35 (50%) n (%)
  TRAE Thrombocytopenia, Grade 3-4: 35 (50%) n (%)
  TRAEs Hematological, Any grade: 36 (51%) n (%)
  TRAEs Hematological, Grade 3-4: 36 (51%) n (%)
  TRAEs Non-hematological, Any grade: 67 (96%) n (%)
  TRAEs Non-hematological, Grade 3-4: 11 (16%) n (%)
  TRAEs Overall, Any grade: 67 (96%) n (%)
  TRAEs Overall, Grade 3-4: 44 (63%) n (%)
Example 1, 20 mg (n = 4)
  ALT increased leading to dose interruption/reduction: 0 n (%)
  AST increased leading to dose interruption/reduction: 0 n (%)
  Amylase increased leading to dose interruption/reduction: 1(25%) n (%)
  Anemia leading to dose interruption/reduction: 0 n (%)
  Atrial fibrillation leading to dose interruption/reduction: 0 n (%)
  Cardiomyopathy leading to dose interruption/reduction: 0 n (%)
  GGT increased leading to dose interruption/reduction: 0 n (%)
  Hyperkalemia leading to dose interruption/reduction: 0 n (%)
  Hypertriglyceridemia leading to dose interruption/reduction: 0 n (%)
  Hypocalcemia leading to dose interruption/reduction: 0 n (%)
  Lacunar infarction leading to dose interruption/reduction: 0 n (%)
  Lipase increased leading to dose interruption/reduction: 0 n (%)
  Thrombocytopenia leading to dose interruption/reduction: 1(25%) n (%)
Example 1, 30 mg (n = 37)
  ALT increased leading to dose interruption/reduction: 0 n (%)
  AST increased leading to dose interruption/reduction: 0 n (%)
  Amylase increased leading to dose interruption/reduction: 0 n (%)
  Anemia leading to dose interruption/reduction: 1 n
  Anemia leading to dose interruption/reduction, percent of cohort: (2.7%)
  Atrial fibrillation leading to dose interruption/reduction: 1 n
  Atrial fibrillation leading to dose interruption/reduction, percent of cohort: (2.7%)
  Cardiomyopathy leading to dose interruption/reduction: 0 n (%)
  GGT increased leading to dose interruption/reduction: 0 n (%)
  Hyperkalemia leading to dose interruption/reduction: 1 n
  Hyperkalemia leading to dose interruption/reduction, percent of cohort: (2.7%)
  Hypertriglyceridemia leading to dose interruption/reduction: 1 n
  Hypertriglyceridemia leading to dose interruption/reduction, percent of cohort: (2.7%)
  Hypocalcemia leading to dose interruption/reduction: 2 n
  Hypocalcemia leading to dose interruption/reduction, percent of cohort: (5.4%)
  Lacunar infarction leading to dose interruption/reduction: 0 n (%)
  Lipase increased leading to dose interruption/reduction: 0 n (%)
  Thrombocytopenia leading to dose interruption/reduction: 12 n
  Thrombocytopenia leading to dose interruption/reduction, percent of cohort: (32%)
Example 1, 40 mg (n = 37)
  ALT increased leading to dose interruption/reduction: 1 n
  ALT increased leading to dose interruption/reduction, percent of cohort: (2.7%)
  AST increased leading to dose interruption/reduction: 1 n
  AST increased leading to dose interruption/reduction, percent of cohort: (2.7%)
  Amylase increased leading to dose interruption/reduction: 0 n (%)
  Anemia leading to dose interruption/reduction: 0 n (%)
  Atrial fibrillation leading to dose interruption/reduction: 0 n (%)
  Cardiomyopathy leading to dose interruption/reduction: 0 n (%)
  GGT increased leading to dose interruption/reduction: 1 n
  GGT increased leading to dose interruption/reduction, percent of cohort: (2.7%)
  Hyperkalemia leading to dose interruption/reduction: 0 n (%)
  Hypertriglyceridemia leading to dose interruption/reduction: 0 n (%)
  Hypocalcemia leading to dose interruption/reduction: 0 n (%)
  Lacunar infarction leading to dose interruption/reduction: 0 n (%)
  Lipase increased leading to dose interruption/reduction: 1 n
